In patent US11568956B2, “Methods for identifying inhibitors of amyloid protein aggregation” (Treventis Corporation, priority 2008, dated 2023):

Target: T1, Aβ 1-40 (Homo sapiens, UniProt P05067)
T1 construct: ThT aggregation assays of Aβ 1-40 and alpha synuclein
Experiment: ThT aggregation assay of Aβ 1-40
Type: biochemical
Method: The anti-amyloid activity of these compounds was evaluated by ThT aggregation assays of Aβ 1-40 and alpha synuclein, as set forth below. The column “A-Syn” below is a functional ThT aggregation assay of alpha synuclein.

T1 sequence (P05067 672-711 limits assumed): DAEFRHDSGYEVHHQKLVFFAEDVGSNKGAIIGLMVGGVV

CC(C)(O)C#Cc1ccc(C(=O)N2CCN(c3ncccn3)CC2)cc1 and COc1ccccc1N1CCN(C(=O)CN(c2ccc(F)cc2)S(=O)(=O)c2ccccc2)CC1 cannot be ordered by IC50: greater than 20 µM for the first, greater than 20 µM for the second.

Cc1sc(/C=N/NC(=O)c2cccc([N+](=O)[O-])c2)cc1[N+](=O)[O-] and CCOC(=O)c1c(NC(=O)c2cccc([N+](=O)[O-])c2C)sc2c1CCC2 cannot be ordered by IC50: greater than 20 µM for the first, greater than 20 µM for the second.

COc1ccc(CC(=O)Nc2ccc(S(=O)(=O)Nc3nc(C)cc(C)n3)cc2)cc1 and COc1ccc(NS(=O)(=O)c2ccc(NS(=O)(=O)c3ccc(Br)s3)cc2)c(OC)c1 cannot be ordered by IC50: greater than 50 µM for the first, greater than 50 µM for the second.

c1ccc2c(c1)CCCC2NCc1ccncc1 (centres unmarked) and CC1=NNC(=O)C1CC(=O)N/N=C/c1cccc(OCc2ccccc2)c1 (centres unmarked) cannot be ordered by IC50: greater than 100 µM for the first, greater than 20 µM for the second.

COc1ccc(NS(=O)(=O)c2ccc(NS(=O)(=O)c3cccs3)cc2)c(OC)c1 and COc1ccc(N(C)S(=O)(=O)c2ccc(NS(=O)(=O)c3cccs3)cc2)c(OC)c1 cannot be ordered by IC50: greater than 50 µM for the first, greater than 20 µM for the second.

In the case of O=[N+]([O-])c1ccc(N2CCCCC2)cc1Nc1ccccc1, the “Aβ - ThT (IC50/μM)” value is reported as “INACTIVE”.
